Test results as given in paper PMC5118696, “Identification of inhibitors that dually target the new permeability pathway and dihydroorotate dehydrogenase in the blood stage of Plasmodium falciparum” (Scientific Reports, 2016).
Read-outs that look alike come from different tables or passages of the source.

Key:
[1] = tested on: Hyp1-NLuc Plasmodium falciparum-infected erythrocytes (new permeability pathway, NPP); assay: microbe, parasite or virus in culture; settings: Erythrocyte, 0.33 h, read-out: Mean RLU at 28 min (As % of DMSO control)
[2] = tested on: Hyp1-NLuc Plasmodium falciparum-infected erythrocytes (new permeability pathway, NPP); assay: microbe, parasite or virus in culture; settings: Erythrocyte, 0.33 h, read-out: % of control remaining

Structure (SMILES) | activity at 2 µM [1] | activity at 2 µM [2]
CCCCNCC(O)(c1ccc(Cl)cc1)c1ccc(Cl)cc1 [MMV665929] | 107% | 122%
COc1ccc(-c2nonc2NC(=O)c2cccc(C)c2)cc1OC [MMV665890] | 104% | 113%
CCC(C)NCC(O)(c1ccc(Cl)cc1)c1ccc(Cl)cc1 (centres unmarked) [MMV665928] | 106% | 121%
Nc1ccc(-c2nc3cc(Cc4ccc5[nH]c(-c6ccc(N)cc6)nc5c4)ccc3[nH]2)cc1 [MMV665943] | 64.3% | 51.7%
CC1=C(CC(=O)c2cccc([N+](=O)[O-])c2)C(=O)c2ccccc2C1=O [MMV666125] | 96.1% | 101%
CCOc1cc(Br)c(C(C)NC(=O)c2cccc(OC)c2)cc1OCC (centres unmarked) [MMV665796] | 106% | 115%
CCCc1c(C)nc2ccccc2c1O [MMV666081] | 105% | 115%
Cc1ccc(-c2cc3c(SCC(=O)Nc4cc(C(F)(F)F)ccc4Cl)nccn3n2)cc1 [MMV396680] | 106% | 101%
CCCc1c(C)nc2ccc(Br)cc2c1O [MMV666095] | 104% | 113%
Oc1ccc(C(=C(Cl)Cl)c2ccc(O)cc2)cc1 [MMV665949] | 90% | 95.5%
CCc1c(C)c(=N)c2ccccc2n1C [MMV006278] | 98.8% | 99.6%
CCCCCCn1c(=N)n(CC(O)COc2cccc(C)c2)c2ccccc21 (centres unmarked) [MMV000445] | 87.2% | 93.8%
Cc1cc(N(C)C)nc(Nc2ccc(NC(=O)Nc3ccccc3)cc2)n1 [MMV020243] | 106% | 104%
CC1CN(C(=O)c2sc3ccccc3c2Cl)CC(C)O1 (centres unmarked) [MMV020492] | 103% | 102%
COc1ccc(-n2ccnc2SCC(=O)Nc2cc(C)ccc2C)c(OC)c1 [MMV019258] | 117% | 115%
Cc1cc(NCCN2CCCCC2)c2ccc3ccccc3c2n1 [MMV006203] | 103% | 99.9%
O=C(NC1CCN(Cc2ccccc2)CC1)c1cc(C(=O)NC2CCN(Cc3ccccc3)CC2)cc(C(=O)NC2CCN(Cc3ccccc3)CC2)c1 [MMV019881] | 110% | 111%
CCOc1c(Cl)cc(CNCC(O)c2ccccc2)cc1OC (centres unmarked) [MMV396632] | 99.9% | 101%
FC(F)(F)c1ccc(Nc2nnnc3ccccc23)cc1 [MMV665935] | 99.5% | 112%
COc1ccc(CCN2C(=O)c3[nH]nc(-c4cc(Cl)c(C)cc4O)c3C2c2ccccc2F)cc1 (centres unmarked) [MMV396717] | 96.5% | 80.3%
Cc1ccc(OCCCCCCNCCO)c(C)c1 [MMV666020] | 97% | 97.1%
COc1ccc(C2NCCc3c2[nH]c2ccccc32)cc1CN1CCN(c2ccc(F)cc2)CC1 (centres unmarked) [MMV019690] | 106% | 113%
CCOc1ccc2nc(C)cc(Nc3ccc(Br)cc3)c2c1 [MMV006522] | 102% | 104%
COc1ccc(N2CCN(C(CNC(=O)C3CCCCC3)c3ccc4c(c3)OCO4)CC2)cc1 (centres unmarked) [MMV019662] | 103% | 114%

Structure (SMILES) | activity at 2 µM [1] | activity at 2 µM [2]
COc1ccc(Br)cc1C1Nc2ccc3ccccc3c2C2=C1C(=O)CC(c1ccccc1)C2 (centres unmarked) [MMV020885] | 100% | 97.2%
CCn1c(CN2CCN(Cc3ccccc3)CC2)nc2cc(NC(=O)c3cccs3)ccc21 [MMV020439] | 20.1% | 18.4%
COc1cccc(-c2nn(C)c3sc(C(=O)NCCN4CCN(c5ccccc5F)CC4)cc23)c1 [MMV019064] | 110% | 118%
Cc1cc(NC(=O)c2ccc(-c3ccccc3)cc2)no1 [MMV018984] | 111% | 110%
COc1cccc(C(=O)Nc2ccc(-c3nc4ccccc4[nH]3)cc2)c1 [MMV019762] | 96.5% | 97.1%
COc1cccc(C2(C)Nc3ccccc3-c3nc4ccccc4n32)c1 (centres unmarked) [MMV396719] | 105% | 105%
CCCCc1c(CCC)c(=N)c2ccccc2n1C [MMV007764] | 110% | 111%
O=C(Nc1nc(-c2ccccn2)cs1)c1ccccc1Br [MMV665909] | 95.5% | 103%
CCOc1cccc(C(=O)Nc2ccc(-c3nc4ccccc4[nH]3)cc2)c1 [MMV019202] | 118% | 117%
CCN(CC)CCn1c(=N)n(CC(O)c2ccc(Cl)c(Cl)c2)c2ccccc21 (centres unmarked) [MMV000248] | 97.6% | 98.3%
COc1ccc(CNC2CCN(c3ccc(NC(=O)c4cccc(Cl)c4)cc3)CC2)cc1OC [MMV666067] | 101% | 111%
CCOc1cc2c(cc1OCC)C(c1cc(OC)c(O)cc1Cl)NCC2 (centres unmarked) [MMV008956] | 102% | 100%
COc1cc(-c2nc(-c3ccc(Sc4ccccc4)cc3)c(-c3ccccc3)[nH]2)cc(OC)c1O [MMV007273] | 97.2% | 105%
O=C(NCC(c1ccsc1)N1CCCCCC1)c1ccc(C(F)(F)F)cc1 (centres unmarked) [MMV396672] | 101% | 98.1%
CC1CCCCN1CCCNC(=O)c1ccc2c(c1)sc1nc(-c3ccc(F)cc3)cn12 (centres unmarked) [MMV000634] | 94.7% | 67.5%
O=C(NC1CCCC1)c1ccc(N2CCC(NCc3cccc(C(F)(F)F)c3)CC2)cc1 [MMV666070] | 111% | 123%
O=C(Nc1cccc(C2=NCCN2)c1)Nc1cccc(C2=NCCN2)c1 [MMV665810] | 85.8% | 84.4%
Clc1ccc2[nH]c3c(NCCCN4CCOCC4)ncnc3c2c1 [MMV006587] | 116% | 102%
O=C(NCC1Cc2cccc(-c3ccncc3)c2O1)c1csc2c1CCCC2 (centres unmarked) [MMV665954] | 104% | 117%
COc1ccc(C2Sc3ccccc3N=C3C2=C(O)c2ccccc23)cc1 (centres unmarked) [MMV000563] | 101% | 106%
CCOc1cccc2sc(N(Cc3cccnc3)C(=O)C3CCCCC3)nc12 [MMV001230] | 103% | 113%
CCOC(=O)c1c(C)n(-c2ccccc2)c2ccc(OC(=O)c3cc(OC)c(OC)c(OC)c3)cc12 [MMV396664] | 94.9% | 97.3%
OC(CNC1CCCC1)Cn1c2ccccc2c2ccccc21 (centres unmarked) [MMV000848] | 112% | 110%
CCOc1c(Br)cc(C2C(C(=O)OC)=CN(C)C=C2C(=O)OC)cc1OC [MMV006764] | 80.4% | 85.8%

Structure (SMILES) | activity at 2 µM [1] | activity at 2 µM [2]
Cc1sc2ncnc(Sc3nc4ccccc4[nH]3)c2c1C [MMV019266] | 109% | 109%
CC(C)(C)c1ccc(O)c(CNC2CCCCC2)c1 [MMV665785] | 103% | 104%
CCOc1ccc(Nc2ccnc3cc(Cl)ccc23)cc1 [MMV007285] | 107% | 102%
Cc1ccccc1OCCSc1nc2ccc(NC(=O)c3cccs3)cc2s1 [MMV007396] | 104% | 111%
CN1CCN(c2ccc(Nc3c4ccccc4nc4ccccc34)cc2)CC1 [MMV006172] | 97.7% | 96.4%
Cc1cc(C)c2nc(N3CCC(C(=O)NCCCN4CCC(N5CCCCC5)CC4)CC3)sc2c1 [MMV019780] | 107% | 111%
Cc1ccc(CN2CCC(C(=O)Nc3ccc(-c4cc5ccccc5[nH]4)cc3)CC2)o1 [MMV666071] | 94.8% | 101%
COc1ccccc1N1C(=N)SC(=Cc2ccc(OCc3ccccc3F)cc2)C1=O [MMV007199] | 86.7% | 62.6%
Cc1ccc(S(=O)(=O)c2c(COC(=O)c3cccc(C)c3)c(-c3ccccc3)nn2C)cc1 [MMV665936] | 97% | 100%
CCCCCCOC(=O)C1=C(C)NC(=O)NC1c1ccccc1F (centres unmarked) [MMV007686] | 107% | 105%
CNCCCNc1ccnc2cc(Cl)ccc12 [MMV020500] | 98.7% | 97.7%
O=C(Nc1ccccc1O)c1ccc(-c2ccc(Cl)cc2Cl)o1 [MMV665948] | 105% | 120%
CCn1c2c(c(=N)c3c1CCC3)CCCC2 [MMV000340] | 105% | 104%
CCN(CC)c1ccc(NC(=O)c2cccs2)cc1 [MMV009060] | 103% | 111%
COc1ccc2sc(N(Cc3cccnc3)C(=O)c3ccc(C#N)cc3)nc2c1 [MMV001239] | 92.1% | 64.1%
Cc1cc(C)cc(Nc2cc(C)nc3nc(C(F)(F)F)nn23)c1 [MMV011259] | 101% | 98.6%
O=C(NCCCN1CCC(N2CCCCC2)CC1)C1=Cc2cc(Br)ccc2OC1 [MMV019995] | 106% | 106%
COc1cc(C(=O)Nc2ccc(-c3nc4ccccc4[nH]3)cc2)cc(OC)c1OC [MMV665898] | 108% | 103%
CCCC(c1nnnn1C1CCCCC1)N1CCN(C(=O)c2ccco2)CC1 (centres unmarked) [MMV666093] | 104% | 113%
O=C(Nc1ccc(CN2CCOCC2)cc1)c1ccc(-c2cc(Cl)ccc2Cl)o1 [MMV020651] | 105% | 103%
N=c1n(CCN2CCCCC2)c2ccccc2n1CC(O)c1cccc(Br)c1 (centres unmarked) [MMV665902] | 101% | 115%
COc1cc(C(=O)Nc2nc3c(cc4c5c(cccc53)CC4)s2)cc(OC)c1OC [MMV396665] | 103% | 102%
